ChEMBL document CHEMBL1144593, “Bicyclic carbamates as inhibitors of papain-like cathepsin proteases” (Bioorg Med Chem Lett, 2007)
The source made the active and inactive calls. The rule behind the calls is not given here.

What was measured:
Cathepsin B = Cathepsin B (Homo sapiens, UniProt P07858); test: Inhibition of human recombinant cathepsin B
Cathepsin S = Cathepsin S (Homo sapiens, UniProt P25774); test: Inhibition of human recombinant cathepsin S
Dipeptidyl peptidase 1 = Dipeptidyl peptidase 1 (Homo sapiens, UniProt P53634); test: Inhibition of human recombinant cathepsin C
Dipeptidyl peptidase 1, sequence (P53634 25-134 limits assumed): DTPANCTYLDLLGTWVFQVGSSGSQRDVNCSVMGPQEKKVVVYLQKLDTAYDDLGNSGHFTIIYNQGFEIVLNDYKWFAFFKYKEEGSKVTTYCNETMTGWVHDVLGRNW
Dipeptidyl peptidase 1, sequence (P53634 231-394 limits assumed): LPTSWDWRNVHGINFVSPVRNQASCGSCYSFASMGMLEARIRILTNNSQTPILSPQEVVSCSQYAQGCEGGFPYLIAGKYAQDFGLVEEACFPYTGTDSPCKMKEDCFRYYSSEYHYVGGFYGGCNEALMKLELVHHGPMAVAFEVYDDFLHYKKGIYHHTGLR
Dipeptidyl peptidase 1, sequence (P53634 395-463 limits assumed): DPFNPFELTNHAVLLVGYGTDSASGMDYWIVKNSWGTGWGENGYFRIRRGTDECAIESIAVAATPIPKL

Procathepsin L = Procathepsin L (Homo sapiens, UniProt P07711); test: Inhibition of human recombinant cathepsin L
Procathepsin L, sequence (P07711 whole entry): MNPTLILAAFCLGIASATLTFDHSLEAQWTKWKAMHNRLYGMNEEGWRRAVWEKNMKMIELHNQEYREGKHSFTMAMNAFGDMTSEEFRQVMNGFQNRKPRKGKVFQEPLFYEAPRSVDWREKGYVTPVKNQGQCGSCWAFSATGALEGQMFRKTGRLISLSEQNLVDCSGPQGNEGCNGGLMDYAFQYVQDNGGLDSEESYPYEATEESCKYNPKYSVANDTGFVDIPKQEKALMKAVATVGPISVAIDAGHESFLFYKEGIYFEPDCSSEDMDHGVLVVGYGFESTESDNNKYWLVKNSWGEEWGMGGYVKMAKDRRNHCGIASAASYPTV

Cathepsin K = biological target: T1, Cathepsin K (Homo sapiens, UniProt P43235); test: Inhibition of human recombinant cathepsin K
T1 sequence (P43235 whole entry): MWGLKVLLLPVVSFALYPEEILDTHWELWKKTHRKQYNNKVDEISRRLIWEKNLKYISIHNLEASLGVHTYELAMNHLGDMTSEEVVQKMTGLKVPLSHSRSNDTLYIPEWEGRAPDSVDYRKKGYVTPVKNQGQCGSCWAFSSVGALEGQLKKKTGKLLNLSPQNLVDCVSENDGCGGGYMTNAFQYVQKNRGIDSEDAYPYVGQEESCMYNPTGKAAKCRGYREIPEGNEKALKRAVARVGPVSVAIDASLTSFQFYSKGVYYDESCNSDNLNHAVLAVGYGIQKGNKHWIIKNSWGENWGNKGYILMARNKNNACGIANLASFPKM

Pro-cathepsin H = biological target: T2, Pro-cathepsin H (Homo sapiens, UniProt P09668); test: Inhibition of human recombinant cathepsin H
T2 sequence (P09668 whole entry): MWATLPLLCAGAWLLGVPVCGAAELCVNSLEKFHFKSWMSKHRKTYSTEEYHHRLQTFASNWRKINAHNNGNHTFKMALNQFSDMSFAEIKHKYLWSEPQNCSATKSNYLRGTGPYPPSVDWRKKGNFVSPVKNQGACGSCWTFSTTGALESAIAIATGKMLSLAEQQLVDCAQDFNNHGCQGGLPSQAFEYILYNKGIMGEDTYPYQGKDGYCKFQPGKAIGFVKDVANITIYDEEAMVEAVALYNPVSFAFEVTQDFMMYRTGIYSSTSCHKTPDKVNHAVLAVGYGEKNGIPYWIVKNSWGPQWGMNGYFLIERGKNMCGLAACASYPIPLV

Cathepsin F = biological target: T3, Cathepsin F (Homo sapiens, UniProt Q9UBX1); test: Inhibition of human recombinant cathepsin F
T3 sequence (Q9UBX1 whole entry): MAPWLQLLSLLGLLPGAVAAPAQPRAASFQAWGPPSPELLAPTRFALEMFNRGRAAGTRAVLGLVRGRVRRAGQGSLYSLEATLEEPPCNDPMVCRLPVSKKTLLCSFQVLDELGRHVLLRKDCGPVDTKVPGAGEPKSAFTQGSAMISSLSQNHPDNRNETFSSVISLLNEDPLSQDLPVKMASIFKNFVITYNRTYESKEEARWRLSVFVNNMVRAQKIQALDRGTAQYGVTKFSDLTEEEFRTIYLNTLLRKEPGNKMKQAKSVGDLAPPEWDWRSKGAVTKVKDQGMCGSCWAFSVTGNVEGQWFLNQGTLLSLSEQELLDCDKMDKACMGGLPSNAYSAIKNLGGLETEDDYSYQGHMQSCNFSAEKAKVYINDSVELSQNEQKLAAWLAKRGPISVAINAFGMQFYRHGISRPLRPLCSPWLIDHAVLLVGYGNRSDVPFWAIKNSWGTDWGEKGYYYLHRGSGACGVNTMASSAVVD

Cathepsin L2 = biological target: T4, Cathepsin L2 (Homo sapiens, UniProt O60911); test: Inhibition of human recombinant cathepsin V
T4 sequence (O60911 whole entry): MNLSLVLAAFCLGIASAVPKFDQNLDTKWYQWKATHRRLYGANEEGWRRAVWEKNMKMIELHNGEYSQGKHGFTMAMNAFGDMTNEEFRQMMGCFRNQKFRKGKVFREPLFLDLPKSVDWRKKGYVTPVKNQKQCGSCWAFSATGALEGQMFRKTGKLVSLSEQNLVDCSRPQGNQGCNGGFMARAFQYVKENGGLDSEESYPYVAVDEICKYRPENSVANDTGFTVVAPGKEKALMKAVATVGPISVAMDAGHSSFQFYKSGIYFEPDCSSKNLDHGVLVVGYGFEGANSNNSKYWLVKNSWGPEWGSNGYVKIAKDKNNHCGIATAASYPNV

Trypsin (Homo sapiens) = Trypsin (Homo sapiens) (UniProt P07477+P07478+P35030); test: Inhibition of trypsin; type: protein assay
[1] = biological target: Prothrombin (Homo sapiens) (UniProt P00734); test: Inhibition of thrombin

Cathepsin S, sequence (P25774 whole entry): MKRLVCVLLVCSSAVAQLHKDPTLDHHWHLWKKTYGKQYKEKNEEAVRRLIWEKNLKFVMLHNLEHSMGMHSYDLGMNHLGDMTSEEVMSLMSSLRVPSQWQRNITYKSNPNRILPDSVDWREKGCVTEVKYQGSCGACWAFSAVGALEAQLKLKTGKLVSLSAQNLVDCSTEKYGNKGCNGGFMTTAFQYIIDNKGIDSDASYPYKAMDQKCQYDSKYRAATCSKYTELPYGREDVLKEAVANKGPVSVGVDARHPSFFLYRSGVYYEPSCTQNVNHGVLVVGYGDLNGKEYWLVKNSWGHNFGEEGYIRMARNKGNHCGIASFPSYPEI

| Structure (SMILES) | IC50 (Cathepsin B) [nM] | IC50 (Cathepsin S) [nM] | IC50 (Dipeptidyl peptidase 1) [nM] | IC50 (Procathepsin L) [nM] | IC50 (Cathepsin K) [nM] | IC50 (Pro-cathepsin H) [nM] | IC50 (Cathepsin F) [nM] | IC50 (Cathepsin L2) [nM] | Activity (Trypsin (Homo sapiens)) | Activity [1] |
| --- | --- | --- | --- | --- | --- | --- | --- | --- | --- | --- |
| O=C1O[C@H]2CN1CC[C@@H]2Br | 158 | 4550 | > 10000 | 5820 | > 30000 | > 100000 | > 10000 | > 10000 | inactive | inactive |
| Cc1cccc(O[C@H]2CCN3C[C@H]2OC3=O)c1C (relative stereo) | 1 | 16 | 18 | 22 | 38 | 2650 | 331 | 131 | inactive | inactive |
| O=C1O[C@@H]2CN1CC[C@@H]2OCc1ccccc1 | 2 | 174 | 403 | 263 | 511 | > 10000 | 3760 | 1290 | inactive | inactive |
| Cc1cccc(O[C@@H]2CCNC[C@@H]2O)c1C | > 100000 | > 100000 | > 100000 | > 100000 | > 100000 | > 100000 | > 100000 | > 100000 | inactive | inactive |
| CC(C)CO[C@H]1CCN2C[C@H]1OC2=O | 8 | 298 | 191 | 230 | 1270 | > 10000 | 1830 | 894 | inactive | inactive |
| Cc1cccc(OCC2CN(C)C(=O)O2)c1C (stereo not given) | > 100000 | > 100000 | > 100000 | > 100000 | > 100000 | > 100000 | > 100000 | > 100000 | inactive | inactive |
| Cc1cccc(O[C@H]2CCN3C[C@@H]2OC3=O)c1C (racemic) | 46 | 473 | 1730 | 1270 | 2440 | > 30000 | 5910 | 3320 | inactive | inactive |
| Cc1cccc(O[C@@H]2CCNC[C@H]2O)c1C | > 100000 | > 100000 | > 100000 | > 100000 | > 100000 | > 100000 | > 100000 | > 100000 | inactive | inactive |
| O=C1O[C@@H]2CN1CC[C@@H]2Oc1ccccc1 | 5 | 17 | 29 | 26 | 104 | 6590 | 487 | 158 | inactive | inactive |
| S=C1O[C@@H]2CN1CC[C@@H]2Oc1ccccc1 | 519 | 696 | 606 | 994 | 1830 | > 100000 | > 10000 | 5170 | inactive | inactive |
